In patent US20240336596A1, “PARP7 INHIBITOR AND USE THEREOF” (NOVOSTAR PHARMACEUTICALS, LTD., priority 2022, published 2024) one finds IC50 data, which are given here for 13 molecules.

Assay [1] addresses T1, recombinant human PARP7 protein (Homo sapiens, UniProt Q7Z3E1).
T1 construct: purchased Abcam ab271651
T1 sequence (Q7Z3E1 1-657): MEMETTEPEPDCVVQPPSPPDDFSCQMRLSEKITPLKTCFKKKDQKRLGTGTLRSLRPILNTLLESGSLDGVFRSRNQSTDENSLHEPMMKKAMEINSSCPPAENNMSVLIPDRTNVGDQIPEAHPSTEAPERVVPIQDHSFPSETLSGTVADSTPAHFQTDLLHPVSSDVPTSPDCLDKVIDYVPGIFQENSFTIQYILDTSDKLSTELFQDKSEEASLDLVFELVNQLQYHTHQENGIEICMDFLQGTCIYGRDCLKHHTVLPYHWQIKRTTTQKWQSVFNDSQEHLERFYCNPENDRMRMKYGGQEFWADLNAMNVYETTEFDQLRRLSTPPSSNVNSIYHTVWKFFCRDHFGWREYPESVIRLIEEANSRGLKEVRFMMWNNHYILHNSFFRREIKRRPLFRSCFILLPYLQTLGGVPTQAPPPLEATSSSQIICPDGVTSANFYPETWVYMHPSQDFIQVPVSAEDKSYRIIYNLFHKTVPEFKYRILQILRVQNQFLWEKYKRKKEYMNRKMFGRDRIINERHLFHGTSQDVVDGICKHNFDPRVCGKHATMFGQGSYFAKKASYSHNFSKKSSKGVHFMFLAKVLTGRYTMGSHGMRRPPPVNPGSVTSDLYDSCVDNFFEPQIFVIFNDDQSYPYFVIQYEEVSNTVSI
Description: Inhibition of PARP7 biological enzyme activity (histone-coated plate, Biotin-NAD+, chemiluminescence). Format: biochemical. To be noted: recombinant human PARP7, Biotin-NAD+ substrate. The procedure:
The recombinant human PARP7 protein kit (Abcam, catalog number ab271651) was used for the assay. According to the kit instructions, 30 μL of histone coating solution (1.5 μg/mL) was first applied to the 384 well holes of the reaction plate and coated at 4° C. for 2 hours. Then, the histone coated solution was washed off, and 50 μL sealing buffer was added to each well, and the sealing buffer was washed off after incubation at 25° C. for 60 minutes. 1000 times the concentration of the compound was 10 configured and diluted from 1 mM to 0.05 μM, and the configured compound was transferred to 384-well plates with 25 nL per well using Echo. The final concentration of the compound in the reaction system was 1000 nM, 333.33 nM, 111.11 nM, 37.03 nM, 12.34 nM, 4.11 nM, 1.37 nM, 0.45 nM, 0.15 nM, 0.05 nM, which was used as the test hole. At the same time, 25 nL DMSO was added to the negative control well and the positive control well. The PARP7 enzyme solution with a concentration of 1.67 times was prepared, and the PARP7 enzyme solution was added to the test hole and the positive control hole with 15 μL each, while the negative control hole was added with 15 μL base Buffer, and incubated at 25° C. for 15 minutes. Then 10 μL 2.5 times Biotin-NAD+ substrate solution was added and incubated at 25° C. for 60 min. After the reaction solution was washed off, the 384-well reaction plates were treated with closed buffer solution diluted with streptavidin-HRP (1:500), each well was 30 μL, and incubated at 25° C. for 30 min. After the HRP buffer was washed off, 30 μL HRP chemiluminescent substrate mixture was added to each well, and the luminescence signal (RLU) of each well was detected by Envision. Calculation formula: Inhibition rate %=(average positive control-RLU compound)/(average positive control-average negative control))*100%. The dose-response curves of each compound were fitted by GraphPad Prism 8 to get IC50 values. IC50 values less than 0.01 μM are labeled as “+++”, IC50 values from 0.01 to 0.1 µM are labeled as “++”, and IC50 values greater than 0.1 to 10.0 μM are labeled as “+”.

For assay [2], the system named is NCI-H1373 cancer cells. Description: NCI-H1373 cancer cell growth inhibition (CellTiter-Glo, 144 hours). Format: cell-based. To be noted: Homo sapiens, 144 hours culture. On the procedure:
Promega CellTiter-Glo cell activity assay kit (Item No.: Promege-G7573) was used to determine the cell activity. 90 μL NCI-H1373 cell suspension (ATCC, catalog No. CRL-5866, batch No. 58078716) was spread into the pores of the 96-well plate with 3500 cells per well. After 24 hours, the 10 μL prepared 10× compound working solution was added into the pores of the cell culture plate with a final concentration of 10 μM. 3.3333 μM, 1.1111 μM, 0.3704 μM, 0.1235 μM, 0.0412 μM, 0.0137 μM, 0.0046 μM, 0.0015 μM, 0.0005 μM, 10 μL DMSO was added to the solvent control, and the final concentration of DMSO was 0.2%. The 0-day plates were collected for analysis, and after 144 hours of culture, the growth condition of cells was detected according to the instructions of CellTiter-Glo cell activity assay kit. Add 50 μL of CellTiter-Glo working liquid into each hole of the cell culture plate, shake the plates in the dark for 2 minutes until cell lysis, and place at room temperature for 10 minutes to detect the luminous signal (RUL) of each cell hole on the 2104En Vision board reader.
Calculation formula: Growth inhibition rate %=(1−(RLU compound−RLU Day0)/(RLU solvent control−RLU Day0))*100%. The dose-response curves of each compound were fitted by GraphPad Prism 8 to obtain IC50 values.
For the matter, IC50 values less than 0.1 μM are labeled “+++”, values from 0.1 to 1 μM are labeled “++”, and values greater than 1 to 10 μM are labeled “+”.

With `C[C@@H](CONC(=O)CC1CCN(c2ncc3cc(F)ccc3n2)CC1)Nc1cn[nH]c(=O)c1C(F)(F)F` [Example 39, (S)-2-(1-(6-fluoroquinazolin-2-yl)piperidin-4-yl)-N-(2-((6-oxo-5-(trifluoromethyl)-1,6-dihydropyridazin-4-yl)amino)propoxy)acetamide], the IC50 in assay [1] was under 10 nM; in assay [2], 100 to 1000 nM.

With `CC[C@@H](/C=N/OCC(=O)N1CCN(c2ncc(C(F)(F)F)cn2)CC1)Nc1cn[nH]c(=O)c1C(F)(F)F` [Example 6, (S,E)-2-((6-oxo-5-(trifluoromethyl)-1,6-dihydropyridazin-4-yl)amino)butanal O-(2-oxo-2-(4-(5-(trifluoromethyl)pyrimidin-2-yl)piperazin-1-yl)ethyl)oxime], the IC50 in assay [1] was under 10 nM; in assay [2], 100 to 1000 nM.

With `C[C@@H](CONC(=O)/C=C1/CCN(c2ncc(C(F)(F)F)cn2)CC1F)Nc1cn[nH]c(=O)c1C(F)(F)F` (stereo partly drawn) [Example 24, (Z)-2-(3-fluoro-1-(5-(trifluoromethyl)pyrimidin-2-yl)piperidin-4-ylidene)-N—((S)-2-((6-oxo-5-(trifluoromethyl)-1,6-dihydropyridazin-4-yl)amino)propoxy)acetamide], the IC50 was under 10 nM in assay [1] and 100 to 1000 nM in assay [2].

On to `CC1CN(c2ncc(C3CC3)cn2)CC=C1CC(=O)NOC[C@H](C)Nc1cn[nH]c(=O)c1C(F)(F)F` (stereo partly drawn) [Example 30, 2-(1-(5-cyclopropylpyrimidin-2-yl)-3-methyl-1,2,3,6-tetrahydropyridin-4-yl)-N—((S)-2-((6-oxo-5-(trifluoromethyl)-1,6-dihydropyridazin-4-yl)amino)propoxy)acetamide], for which the values for the IC50 in assay [1] and in assay [2] were under 10 nM and under 100 nM, respectively.

Turning to `C[C@@H](/C=N/OCC(=O)N1CCN(c2ncc(C#N)cn2)CC1)Nc1cn[nH]c(=O)c1C(F)(F)F` [Example 7, (S,E)-2-(4-(2-(((2-((6-oxo-5-(trifluoromethyl)-1,6-dihydropyridazin-4-yl)amino)propylidene)amino)oxy)acetyl)piperazin-1-yl)pyrimidine-5-carbonitrile], the IC50 is under 10 nM in assay [1] and 1000 to 10000 nM in assay [2].

`CC(=O)c1c(N[C@@H](C)CONC(=O)CC2CCN(c3ncc(C(F)(F)F)cn3)CC2)cn[nH]c1=O` [Example 36, (S)—N-(2-((5-acetyl-6-oxo-1,6-dihydropyridazin-4-yl)amino)propoxy)-2-(1-(5-(trifluoromethyl)pyrimidin-2-yl)piperidin-4-yl)acetamide]: the results for the IC50 in assay [1] and in assay [2] were under 10 nM and under 100 nM, respectively.

For `C[C@@H](CONC(=O)C(F)C1CCN(c2ncc(C(F)(F)F)cn2)CC1)Nc1cn[nH]c(=O)c1C(F)(F)F` (some centres unmarked) [Example 48], the figures for the IC50 in assay [1] and in assay [2] were under 10 nM and under 100 nM, respectively.

`C[C@@H](/C=N/OCC(=O)N1CCN(c2ncc(C(F)(F)F)cn2)CC1)Nc1cn[nH]c(=O)c1C(F)(F)F` [Example 5, (S,E)-2-((6-oxo-5-(trifluoromethyl)-1,6-dihydropyridazin-4-yl)amino) propanal O-(2-oxo-2-(4-(5-(trifluoromethyl)pyrimidin-2-yl)piperazin-1-yl)ethyl) oxime]: the IC50 in assay [1] was under 10 nM; in assay [2], under 100 nM.

Turning to `C[C@@H]1CN(c2ccc(C#N)cn2)CCN1C(=O)CO/N=C/[C@H](C)Nc1cn[nH]c(=O)c1C(F)(F)F` [Example 13, 6-((R)-3-methyl-4-(2-(((E)-((S)-2-((6-oxo-5-(trifluoromethyl)-1,6-dihydropyridazin-4-yl)amino)propylidene)amino)oxy)acetyl)piperazin-1-yl)nicotinonitrile], the IC50 in assay [1] is under 10 nM; in assay [2] it was 1000 to 10000 nM.

In the case of `C[C@@H](CONC(=O)CC1CCN(c2ncc3cc[nH]c3n2)CC1)Nc1cn[nH]c(=O)c1C(F)(F)F` [Example 38, (S)-2-(1-(7H-pyrrolo(2,3-d)pyrimidin-2-yl)piperidin-4-yl)-N-(2-((6-oxo-5-(trifluoromethyl)-1,6-dihydropyridazin-4-yl)amino)propoxy)acetamide], the half-maximal inhibitory concentration (IC50) in assay [1] was under 10 nM; in assay [2], 100 to 1000 nM.

Take `C[C@@H](CONC(=O)CC1CCN(c2ncc(C(F)(F)F)cn2)CC1F)Nc1cn[nH]c(=O)c1C(F)(F)F` (stereo partly drawn) [Example 53, 2-(3-fluoro-1-(5-(trifluoromethyl)pyrimidin-2-yl)piperidin-4-yl)-N—((S)-2-((6-oxo-5-(trifluoromethyl)-1,6-dihydropyridazin-4-yl)amino)propoxy)acetamide]: the IC50 in assay [1] is under 10 nM; in assay [2], 100 to 1000 nM.

As for `O=C(CO/N=C/[C@@H](Nc1cn[nH]c(=O)c1C(F)(F)F)C1CC1)N1CCN(c2ncc(C(F)(F)F)cn2)CC1` [Example 10, (S,E)-2-cyclopropyl-2-((6-oxo-5-(trifluoromethyl)-1,6-dihydropyridazin-4-yl)amino)acetaldehyde O-(2-oxo-2-(4-(5-(trifluoromethyl)pyrimidin-2-yl)piperazin-1-yl)ethyl) oxime], the figures for the IC50 in assay [1] and in assay [2] were under 10 nM and 100 to 1000 nM, respectively.

For the molecule `CC(/C=N/OCC(=O)N1CCN(c2ncc(C(F)(F)F)cn2)CC1)c1cccc2c(=O)[nH]ncc12` (centres unmarked) [Example 18, (E)-2-(1-oxo-1,2-dihydrophthalazin-5-yl)propanal O-(2-oxo-2-(4-(5-(trifluoromethyl)pyrimidin-2-yl)piperazin-1-yl)ethyl) oxime], the IC50 in assay [1] was under 10 nM; in assay [2], 1000 to 10000 nM.
